Like-named read-outs stand apart in the source and are kept apart here.
Assays:
rats = details: doses as high as 30 mg/kg; cited from earlier work
glutamate receptors = details: 100 μM; cited from earlier work
rats subjected to MCAO [1] = experiment: NeuN immunostaining, viable neurons after MCAO; assay type: in vivo, rat; details: 15 mg/kg
Procedure: MCAO surgery was performed as previously reported by Vendrame et al (Vendrame et al., 2004) and originally described by Longa et al (Longa et al., 1989). Laser Doppler Radar (LDR) was used to monitor decrease in blood perfusion which indicates successful occlusion (Moor Instruments Ltd, Devon, England). A 2 mm diameter hole was drilled into the right parietal bone (1 mm posterior and 4 mm lateral from bregma), and a guide screw was set. The LDR probe (MP10M200ST; Moor) was inserted into the guide screw, and the tip of the probe was placed against the pial surface of the brain. […] For MCAO, the embolus (4 cm long, 6 lb test monofilament) was advanced up the internal carotid artery into the middle cerebral artery and tied off at the internal/external carotid junction to produce permanent occlusion. The rat was then sutured, given a 1 ml subcutaneous injection of saline, and allowed to wake in a fresh cage. […]
[…]. […] The area of the contralateral side of the brain tissue was measured and used to compensate for possible edema in ipsilateral hemispheres. NeuN immunostaining was analyzed using the NIH Image J software to count NeuN positive cells by particle analysis in the ipsilateral hemispheres of the corticalustriatal and corticaluhippocampal regions of the rat brains at a magnification of 10×.

rats subjected to MCAO [2] = experiment: isolectin IB4 labeling, activated microglia/macrophages after MCAO; assay type: in vivo, rat; details: 15 mg/kg DTG from 24 h post-MCAO
Procedure: (§1) MCAO surgery was performed as previously reported by Vendrame et al (Vendrame et al., 2004) and originally described by Longa et al (Longa et al., 1989). Laser Doppler Radar (LDR) was used to monitor decrease in blood perfusion which indicates successful occlusion (Moor Instruments Ltd, Devon, England). A 2 mm diameter hole was drilled into the right parietal bone (1 mm posterior and 4 mm lateral from bregma), and a guide screw was set. The LDR probe (MP10M200ST; Moor) was inserted into the guide screw, and the tip of the probe was placed against the pial surface of the brain. […] For MCAO, the embolus (4 cm long, 6 lb test monofilament) was advanced up the internal carotid artery into the middle cerebral artery and tied off at the internal/external carotid junction to produce permanent occlusion. The rat was then sutured, given a 1 ml subcutaneous injection of saline, and allowed to wake in a fresh cage.
(§2) Rats were randomly assigned to 1 of 7 groups: (1) MCAO (n=7); (2) MCAO and 15 mg/kg DTG in a 3% lactic acid vehicle (n=11); (3) MCAO and 30 mg/kg DTG (n=16); (4) MCAO and bi-daily injections of 30 mg/kg DTG (n=12); (5) MCAO and 10 mg/kg N-[2-(3,4-dichlorophenyl)ethyl]-N-methyl-2-(dimethylamino)ethylamine (BD 1047) (n=4); (6) MCAO and 10 mg/kg BD1047+30 mg/kg DTG (n=4); (7) sham/MCAO and 15 mg/kg DTG (n=4). […]

rats subjected to MCAO [3] = experiment: GFAP immunostaining, reactive astrocytes after MCAO; assay type: in vivo, rat; details: 15 mg/kg DTG from 24 h post-MCAO
Procedure: as §1, §2

rats subjected to MCAO [4] = tested on: rats subjected to MCAO
rats subjected to MCAO [5] = experiment: Fluoro-Jade infarct area after MCAO; assay type: in vivo, rat

SMILES: Cc1ccccc1NC(=N)Nc1ccccc1C [DTG, 1,3-di-o-tolyguanidine]
- tolerability (rats): well tolerated
- inhibition of calcium elevations evoked by glutamate application (glutamate receptors): not
- increase of surviving NeuN cells in the infarct zone relative to MCAO-only animals (rats subjected to MCAO [1]; 24 hr post stroke): > 83%
- number of viable neurons (NeuN) in ipsilateral infarct zones (rats subjected to MCAO [1]; cortical/striatal and cortical/hippocampal, p<0.001): significantly increased
- isolectin IB4-positive cells in the infarct zone (rats subjected to MCAO [2]): fails to elicit these elevations
- level of GFAP expression in brain sections (rats subjected to MCAO [3]): marked decrease
- survival rate 96 hours post MCAO (rats subjected to MCAO [4]; 15 mg/kg daily s.c. at 24, 48, 72 h post MCAO): over 70%
- survival rate 96 hours post MCAO (rats subjected to MCAO [4]; 30 mg/kg daily s.c. at 24, 48, 72 h post MCAO): under 40%
- deaths in sham animals following DTG application (rats subjected to MCAO [4]; sham control, 15 mg/kg DTG): none
- decrease of Fluoro-Jade staining relative to untreated MCAO animals (rats subjected to MCAO [5]; 15 mg/kg, 24 hr post stroke): > 85%
- infarct area (Fluoro-Jade labeled) (rats subjected to MCAO [5]; cortical/hippocampal region, 15 mg/kg DTG from 24 h post-MCAO (MCAO-only 29±3%)): 2±2%
- infarct area (Fluoro-Jade labeled) (rats subjected to MCAO [5]; cortical/striatal region, 15 mg/kg DTG from 24 h post-MCAO (MCAO-only 44±5%)): 6±4%
